This test addresses T1, human S1P1 receptor (EDG1) (Homo sapiens, UniProt P21453).
T1 construct: TEV protease site + Gal4-VP16 transcription factor (only in the Tango assay cells; not described for the GTPγS membranes); expressed in transfected cells; host or cells: rat hepatoma cells (membranes, GTPγS assay) or Tango EDG1-bla U2OS cells (Tango assay)
The experiment in a line: S1P1 GTPγS assay or S1P1 Tango assay (at least one of the above assays). Format: cell-based. Conditions: read-out: pEC50 in at least one of the above assays (converted). The procedure:
For membrane preparations all steps were performed at 4° C. Rat hepatoma cells stably expressing the human S1P1 receptor or Rat Basophilic Leukaemia cells (RBL) stably expressing human S1P3 receptor were grown to 80% confluency before being harvested into 10 ml Phospho-Buffered Saline (PBS) and centrifuged at 1200 rpm for 5 minutes. After removal of the supernatant, the pellet was re-suspended and cells were homogenised within a glass Waring blender for 2 bursts of 15 secs in 200 mls of buffer (50 mM HEPES, 1 mM leupeptin, 25 μg/ml bacitracin, 1 mM EDTA, 1 mM PMSF, 2 μM pepstatin A). The blender was plunged into ice for 5 mins after the first burst and 10-40 mins after the final burst to allow foam to dissipate. The material was then spun at 500 g for 20 mins and the supernatant spun for 36 mins at 48,000 g. The pellet was resuspended in the same buffer as above but without PMSF and pepstatin A. The material was then forced through a 0.6 mm needle, made up to the required volume, (usually ×4 the volume of the original cell pellet), aliquoted and stored frozen at −80° C. S1P1 GTPγS assay Human S1P1 rat hepatoma membranes (1.5 μg/well) were adhered to a wheatgerm agglutinin (WGA)-coated scintillation proximity assay (SPA) beads (0.125 mg/well) in assay buffer (HEPES 20 mM, MgCl2 10 mM, NaCl 100 mM and pH adjusted to 7.4 using KOH 5M, GDP 10 μM FAC (final assay concentration) and saponin 90 μg/ml FAC was also added).
After 30 minutes pre-coupling on ice the bead and membrane suspension was dispensed into a white Greiner polypropylene LV384-well plate (5 μl/well), containing 0.1 μl of the compound. 5 μl/well [^35S]-GTPγS (0.5 nM final radioligand conc) made up in assay buffer was then added to agonist plates. The final assay cocktail (10.1 μl) was then centrifuged at 1000 rpm for 5 minutes then read immediately on a Viewlux reader.
All test compounds were dissolved in DMSO at a concentration of 10 mM and were prepared in 100% DMSO using a 1 in 4 dilution step to provide 11 point dose response curves. The dilutions were transferred to the assay plates ensuring that the DMSO concentration was constant across the plate for all assays.
All data was normalized to the mean of 16 high and 16 low control wells on each plate. A four parameter curve fit was then applied.
Recombinant EDG1-bla/U2OS cells (contain the human Endothelial Differentiation Gene 1 (EDG1) linked to a TEV protease site and a Gal4-VP16 transcription factor stably integrated into the Tango GPCR-bla U2OS parental cell line) were suspended in assay medium (Invitrogen Freestyle Expression Medium) at a density of 312, 500 cells/ml. Add 100 μl/well of the assay medium to the cell-free control wells (column 12) and 100 μl/well of the cell suspension to the test compound wells (row 2-8, column 1-10), the unstimulated control wells (DMSO) (column 11), and stimulated control wells (S1P) (row 1, column 1-10) in a Corning black-well, clear bottom 96-well plate. Cells were incubated at 37° C., 5% CO2 for 44-48 h. Add 25 μl of 5× stock solution of test compounds in assay medium with 0.5% DMSO to the test compound wells, 25 μl of 5× stock solution of agonist (S1P) in assay medium with 0.5% DMSO to the stimulated compound wells, and 25 μl of 5× stock solution of 0.5% DMSO in assay medium to the unstimulated control and cell-free control wells.
After incubation at 37° C., 5% CO2 for 5 h, 25 μl of 6× substrate mixture (6 μl Solution A (1 mg LiveBLAzer™-FRET B/G substrate (CCF4-AM) in 912 μl DMSO) plus 60 μl Solution B plus 934 μl Solution C) was added to each well and incubate at room temperature for 2 h in dark. The plate was finally read on EnVision for two emission channels (460 nm and 530 nm).
All test compounds were dissolved in DMSO at a concentration of 10 mM and were prepared in 100% DMSO using a 1 in 5 dilution step to provide 10 point dose response curves. […]

T1 sequence (P21453 whole entry, the tested form may be a part): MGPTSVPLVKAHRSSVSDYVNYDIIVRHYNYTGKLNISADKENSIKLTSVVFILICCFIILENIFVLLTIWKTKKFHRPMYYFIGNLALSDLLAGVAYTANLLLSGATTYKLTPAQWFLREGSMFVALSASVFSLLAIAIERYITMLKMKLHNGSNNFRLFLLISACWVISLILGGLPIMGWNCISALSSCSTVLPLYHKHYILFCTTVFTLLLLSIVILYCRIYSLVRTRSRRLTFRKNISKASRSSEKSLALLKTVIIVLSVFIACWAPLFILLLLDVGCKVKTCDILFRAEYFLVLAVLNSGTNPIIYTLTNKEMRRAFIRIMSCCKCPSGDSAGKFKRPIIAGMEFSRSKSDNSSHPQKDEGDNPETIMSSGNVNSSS

With `CC(C)Oc1ccc(-c2nc(-c3cccc4c(CCC(=O)O)cn(C)c34)no2)cc1Cl` [Example 2, 3-[7-(5-{3-Chloro-4-[(1-methylethyl)oxy]phenyl}-1,2,4-oxadiazol-3-yl)-1-methyl-1H-indol-3-yl]propanoic acid], the EC50 is less than 0.01 µM. On to `CC(C)Oc1ccc(-c2nc(-c3cccc4c(C(=O)NCCCC(=O)O)c[nH]c34)no2)cc1Cl` [Example 74, 4-({[7-(5-{3-chloro-4-[(1-methylethyl)oxy]phenyl}-1,2,4-oxadiazol-3-yl)-1H-indol-3-yl]carbonyl}amino)butanoic acid], for which the EC50 was less than 0.001 µM.

Take `CC(C)Oc1ncc(-c2nc(-c3cc4[nH]cc(CCC(=O)O)c4cc3F)no2)cc1Cl` [Example 111, 3-[6-(5-{5-Chloro-6-[(1-methylethyl)oxy]-3-pyridinyl}-1,2,4-oxadiazol-3-yl)-5-fluoro-1H-indol-3-yl]propanoic acid]: the EC50 was less than 0.01 µM. Take `CC(C)Oc1ncc(-c2nc(-c3cc(F)cc4c(CCC(=O)O)cn(C)c34)no2)cc1Cl` [Example 102, 3-[7-(5-{5-Chloro-6-[(1-methylethyl)oxy]-3-pyridinyl}-1,2,4-oxadiazol-3-yl)-5-fluoro-1-methyl-1H-indol-3-yl]propanoic acid]: the EC50 was less than 0.001 µM.

Consider `CC(C)Oc1ccc(-c2nc(-c3ccc(F)c4c(CCC(=O)O)c[nH]c34)no2)cc1C#N` [Example 21, 3-[7-(5-{3-Cyano-4-[(1-methylethyl)oxy]phenyl}-1,2,4-oxadiazol-3-yl)-4-fluoro-1H-indol-3-yl]propanoic acid], for which the EC50 was less than 0.01 µM. As for `CC(C)Oc1ccc(-c2nc(-c3cc4[nH]cc(CCC(=O)O)c4cc3F)no2)cc1C#N` [Example 110, 3-[6-(5-{3-Cyano-4-[(1-methylethyl)oxy]phenyl}-1,2,4-oxadiazol-3-yl)-5-fluoro-1H-indol-3-yl]propanoic acid], the EC50 was less than 0.001 µM. As for `CC(C)Oc1ccc(-c2nc(-c3c(F)ccc4c(CCC(=O)O)c[nH]c34)no2)cc1Cl` [Example 103, 3-[7-(5-{3-Chloro-4-[(1-methylethyl)oxy]phenyl}-1,2,4-oxadiazol-3-yl)-6-fluoro-1H-indol-3-yl]propanoic acid], the EC50 is less than 0.001 µM. Take `CC(C)Oc1ccc(-c2nc(-c3cccc4c(C(=O)NCCC(=O)O)c[nH]c34)no2)cc1Cl` [Example 73, N-{[7-(5-{3-chloro-4-[(1-methylethyl)oxy]phenyl}-1,2,4-oxadiazol-3-yl)-1H-indol-3-yl]carbonyl}-β-alanine]: the EC50 was less than 0.001 µM. Regarding `CC(C)Oc1ccc(-c2nc(-c3c(F)ccc4c(CCC(=O)O)cn(C)c34)no2)cc1Cl` [Example 104, 3-[7-(5-{3-Chloro-4-[(1-methylethyl)oxy]phenyl}-1,2,4-oxadiazol-3-yl)-6-fluoro-1-methyl-1H-indol-3-yl]propanoic acid], the EC50 is less than 0.01 µM. `CC(C)Oc1ccc(-c2nc(-c3ccc(F)c4c(CCC(=O)O)cn(C)c34)no2)cc1Cl` [Example 20, 3-[7-(5-{3-Chloro-4-[(1-methylethyl)oxy]phenyl}-1,2,4-oxadiazol-3-yl)-4-fluoro-1-methyl-1H-indol-3-yl]propanoic acid]: the EC50 is less than 0.01 µM. Turning to `CC(C)Oc1ccc(-c2nc(-c3c(F)ccc4c(CCC(=O)O)cn(C)c34)no2)cc1C#N` [Example 106, 3-[7-(5-{3-Cyano-4-[(1-methylethyl)oxy]phenyl}-1,2,4-oxadiazol-3-yl)-6-fluoro-1-methyl-1H-indol-3-yl]propanoic acid], the EC50 was less than 0.01 µM. As for `CC(C)Oc1ccc(-c2nc(-c3ccc4[nH]c(CCC(=O)O)cc4c3)no2)cc1C#N` [Example 89, 3-[5-(5-{3-cyano-4-[(1-methylethyl)oxy]phenyl}-1,2,4-oxadiazol-3-yl)-1H-indol-2-yl]propanoic acid], the EC50 is less than 0.01 µM. Consider `CC(C)Oc1ccc(-c2nc(-c3cc4[nH]cc(CCC(=O)O)c4cc3F)no2)cc1Cl` [Example 109, 3-[6-(5-{3-Chloro-4-[(1-methylethyl)oxy]phenyl}-1,2,4-oxadiazol-3-yl)-5-fluoro-1H-indol-3-yl]propanoic acid], for which the EC50 is less than 0.001 µM. Turning to `CCCCn1cc(CCC(=O)O)c2cccc(-c3noc(-c4ccc(OC(C)C)c(Cl)c4)n3)c21` [Example 29, 3-[1-butyl-7-(5-{3-chloro-4-[(1-methylethyl)oxy]phenyl}-1,2,4-oxadiazol-3-yl)-1H-indol-3-yl]propanoic acid], the EC50 was not below 1 µM. As for `CC(C)Oc1ccc(-c2nc(-c3cccc4c(CNCCC(=O)O)cn(C)c34)no2)cc1Cl` [Example 58, N-{[7-(5-{3-chloro-4-[(1-methylethyl)oxy]phenyl}-1,2,4-oxadiazol-3-yl)-1-methyl-1H-indol-3-yl]methyl}-β-alanine], the EC50 was less than 0.001 µM. For the molecule `CC(C)Oc1ccc(-c2nc(-c3cccc4c(C(=O)N(C)CCC(=O)O)c[nH]c34)no2)cc1Cl` [Example 75, N-{[7-(5-{3-chloro-4-[(1-methylethyl)oxy]phenyl}-1,2,4-oxadiazol-3-yl)-1H-indol-3-yl]carbonyl}-N-methyl-β-alanine], the EC50 is less than 0.01 µM. Regarding `CC(C)Oc1ccc(-c2nc(-c3c(F)ccc4c(CCC(=O)O)c[nH]c34)no2)cc1C#N` [Example 105, 3-[7-(5-{3-Cyano-4-[(1-methylethyl)oxy]phenyl}-1,2,4-oxadiazol-3-yl)-6-fluoro-1H-indol-3-yl]propanoic acid], the EC50 is less than 0.001 µM. Regarding `CC(C)Oc1ccc(-c2nc(-c3ccc4[nH]c(C(=O)O)cc4c3)no2)cc1Cl` [Example 8, Sodium 5-(5-{3-chloro-4-[(1-methylethyl)oxy]phenyl}-1,2,4-oxadiazol-3-yl)-1H-indole-2-carboxylate], the EC50 is not below 1 µM. `CC(C)Oc1ncc(-c2nc(-c3ccc4c(CN5CCC(C(=O)O)CC5)c[nH]c4c3)no2)cc1Cl` [Example 78, 1-{[6-(5-{5-chloro-6-[(1-methylethyl)oxy]-3-pyridinyl}-1,2,4-oxadiazol-3-yl)-1H-indol-3-yl]methyl}-4-piperidinecarboxylic acid]: the EC50 is not below 1 µM.

`CC(C)Oc1ccc(-c2nc(-c3cccc4c(CNCC(=O)O)c[nH]c34)no2)cc1Cl` [Example 47, N-{[7-(5-{3-chloro-4-[(1-methylethyl)oxy]phenyl}-1,2,4-oxadiazol-3-yl)-1H-indol-3-yl]methyl}glycine]: the EC50 is less than 0.001 µM. In the case of `CC(C)Oc1ccc(-c2nc(-c3ccc4c(CCC(=O)O)c[nH]c4c3)no2)cc1C#N` [Example 7, 3-[6-(5-{3-Cyano-4-[(1-methylethyl)oxy]phenyl}-1,2,4-oxadiazol-3-yl)-1H-indol-3-yl]propanoic acid], the EC50 is less than 0.001 µM.

On to `CC(C)Oc1ccc(-c2nc(-c3cccc4c(C[C@@H](C)C(=O)O)cn(C)c34)no2)cc1Cl` [Example 36, (2R)-3-[7-(5-{3-chloro-4-[(1-methylethyl)oxy]phenyl}-1,2,4-oxadiazol-3-yl)-1-methyl-1H-indol-3-yl]-2-methylpropanoic acid], for which the EC50 was less than 0.01 µM. For the molecule `CC(C)Oc1ccc(-c2nc(-c3ccc(F)c4c(CCC(=O)O)c[nH]c34)no2)cc1Cl` [Example 19, 3-[7-(5-{3-Chloro-4-[(1-methylethyl)oxy]phenyl}-1,2,4-oxadiazol-3-yl)-4-fluoro-1H-indol-3-yl]propanoic acid], the EC50 was less than 0.01 µM.
